Experiment [1] relates to Puccinia recondita—PUCCRT. Description: Brown Rust of Wheat, in vivo whole plant, 24 Hour Protectant. Conditions: 100 ppm spray, 24 hour protectant, wheat, control of fungal infection vs untreated plants; for pest or weed control at 100 ppm: Puccinia, read-out: PUCCRT in vivo 1 Day Protectant.
The subject of experiment [2] is Phytophthora infestans (PHYTIN). Description: microbe, parasite or virus in culture. Conditions: Phytophthora infestans, read-out: PHYTIN in vitro Growth Inhibition. The experiment is classed as cell-based.
A further experiment deals with Septoria tritici—SEPTTR. The experiment in a line: Leaf Blotch of Wheat, in vivo whole plant, 24 Hour Protectant. Conditions: 100 ppm spray, 24 hour protectant, wheat, control of fungal infection vs untreated plants; for pest or weed control at 100 ppm: Zymoseptoria tritici, 24 h, read-out: SEPTTR in vivo 1 Day Protectant.
The next experiment concerns Ustilago maydis (USTIMA). The experiment in a line: microbe, parasite or virus in culture. Format: cell-based. Conditions: Mycosarcoma maydis, read-out: USTIMA in vitro Growth Inhibition.
For experiment [3], the system named is Magnaporthe grisea (Pyricularia oryzae—PYRIOR). Description: microbe, parasite or virus in culture. Format: cell-based. The following applies: Pyricularia oryzae, read-out: PYRIOR in vitro Growth Inhibition.
The test system of experiment [4] is Phytophthora infestans—PHYTIN. Description: whole plant or invertebrate. Format: in vivo. The following applies: Phytophthora, in Solanum lycopersicum, 24 h, read-out: PHYTIN in vivo 1 Day Protectant.
Experiment [5] relates to Mycosphaerella graminicola (Septoria tritici—SEPTTR). Description: In vitro fungal growth inhibition, Mycosphaerella graminicola (SEPTTR). The following applies: Zymoseptoria tritici; 25 ppm in growth medium; read-out: SEPTTR in vitro Growth Inhibition. The experiment is classed as cell-based.
For experiment [6], the system named is Leptosphaeria nodorum—LEPTNO. The experiment in a line: Glume Blotch of Wheat, in vivo whole plant, 24 Hour Protectant. Conditions: 100 ppm spray, 24 hour protectant, wheat, control of fungal infection vs untreated plants; for pest or weed control at 100 ppm: Leptosphaeria, read-out: LEPTNO in vivo 1 Day Protectant.
A further experiment concerns Erysiphe graminis—ERYSGT. The experiment in a line: Powdery Mildew of Wheat, in vivo whole plant, 24 Hour Protectant. The following applies: Erysiphe; 100 ppm spray, 24 hour protectant, wheat; control of fungal infection vs untreated plants; read-out: ERYSGT in vivo 1 Day Protectant.
Experiment [7] concerns Stagonospora nodorum (Leptosphaeria nodorum—LEPTNO). The experiment in a line: In vitro fungal growth inhibition, Stagonospora nodorum (LEPTNO). The experiment is classed as cell-based. Conditions: Leptosphaeria; 25 ppm in growth medium; read-out: LEPTNO in vitro Growth Inhibition.
The subject of experiment [8] is Rhizoctonia solani (RHIZSO). The experiment in a line: microbe, parasite or virus in culture. Conditions: Rhizoctonia solani, read-out: RHIZSO in vitro Growth Inhibition. Format: cell-based.

Usually inhibition stands for the share of the control response that was lost under treatment. Regarding `O=C(NCCc1ccc(Cl)cc1)c1ncccc1O` [Compound 233, N-(2-(4-CHLOROPHENYL)ETHYL)-3-HYDROXYPYRIDINE-2-CARBOXAMIDE], the pest or weed control at 100 ppm in [1] is below 25%; in the experiment with Septoria tritici—SEPTTR, 25 to 74%; in experiment [4] it was below 25%; in experiment [6], below 25%; in the experiment with Erysiphe graminis—ERYSGT, below 25%. Further, the inhibition at 25 ppm was above 80% in experiment [2]; above 80% in the experiment with Ustilago maydis (USTIMA); above 80% in experiment [3]; above 80% in experiment [5]; above 80% in experiment [7]; below 80% in [8].
For `O=C(NCCCCc1ccccc1)c1ncccc1O` [Compound 234], the pest or weed control at 100 ppm in experiment [1] is below 25%; with Septoria tritici—SEPTTR, 25 to 74%; in experiment [4], below 25%; in [6], below 25%; with Erysiphe graminis—ERYSGT, below 25%. For the same compound, the inhibition at 25 ppm in experiment [2] is above 80%; in the experiment with Ustilago maydis (USTIMA) it was below 80%; in experiment [3] it was above 80%; in experiment [5] it was below 80%; in experiment [7], above 80%; in [8], below 80%.
`O=C(Nc1nccs1)c1ncccc1O` [Compound 235]: the pest or weed control at 100 ppm (in [1]; in the experiment with Septoria tritici—SEPTTR; in experiment [4]; in experiment [6]; in the experiment on Erysiphe graminis—ERYSGT) was below 25% each time. The inhibition at 25 ppm (in experiment [2]; with Ustilago maydis (USTIMA); in experiment [3]; in [5]; in [7]; in experiment [8]) was above 80% each time.
On to `COc1ccnc(C(=O)NCC#CCCl)c1O` [Compound 239], for which the pest or weed control at 100 ppm was 25 to 74% in experiment [1]; 25 to 74% with Septoria tritici—SEPTTR; below 25% in experiment [4]; 25 to 74% in experiment [6]; below 25% in the experiment on Erysiphe graminis—ERYSGT. The inhibition at 25 ppm (in experiment [2]; with Ustilago maydis (USTIMA); in [3]; in [5]; in experiment [7]; in [8]) was below 80% throughout.
For the compound `COc1ccnc(C(=O)NCC#Cc2ccccc2)c1O` [Compound 240], the pest or weed control at 100 ppm in [1] is below 25%; in [4], below 25%; in [6], 25 to 74%; in the experiment with Erysiphe graminis—ERYSGT it was below 25%. The inhibition at 25 ppm (in experiment [2]; in the experiment on Ustilago maydis (USTIMA); in experiment [3]; in experiment [5]; in [7]; in experiment [8]) was below 80% in each case. Besides, the “SEPTTR in vivo 1 Day Protectant” value in the experiment with Septoria tritici—SEPTTR is reported as “+ +”.
As to `COc1ccnc(C(=O)NCC2C(C=C(C)C)C2(C)C)c1O` (stereo not shown) [Compound 241], the pest or weed control at 100 ppm in experiment [1] is 25 to 74%; with Septoria tritici—SEPTTR, 25 to 74%; in experiment [4], below 25%; in experiment [6] it was 25 to 74%; with Erysiphe graminis—ERYSGT it was below 25%. Also, the inhibition at 25 ppm is above 80% in [2]; below 80% with Ustilago maydis (USTIMA); below 80% in experiment [3]; below 80% in experiment [5]; below 80% in experiment [7]; above 80% in experiment [8].
On to `COc1ccnc(C(=O)NC/C=C(\C)CCC=C(C)C)c1O` [Compound 242], for which the pest or weed control at 100 ppm in experiment [1] was below 25%; with Septoria tritici—SEPTTR it was 25 to 74%; in [4], below 25%; in [6] it was below 25%; in the experiment on Erysiphe graminis—ERYSGT, below 25%. Moreover, the inhibition at 25 ppm (in experiment [2]; in the experiment on Ustilago maydis (USTIMA); in experiment [3]; in experiment [5]; in experiment [7]; in experiment [8]) was above 80% each time.
Regarding `COc1ccnc(C(=O)NCCCc2cccnc2)c1O` [Compound 243], the pest or weed control at 100 ppm was 25 to 74% in experiment [1]; 25 to 74% in the experiment on Septoria tritici—SEPTTR; below 25% in experiment [4]; 25 to 74% in experiment [6]; below 25% in the experiment with Erysiphe graminis—ERYSGT. For the same compound, the inhibition at 25 ppm (in experiment [2]; in the experiment on Ustilago maydis (USTIMA); in experiment [3]; in experiment [5]; in [7]; in experiment [8]) was below 80% in each case.
For the compound `COc1ccnc(C(=O)NCC2COCCOCCOCCOCCO2)c1O` (stereo not shown) [Compound 245], the pest or weed control at 100 ppm in [1] was below 25%; with Septoria tritici—SEPTTR it was 25 to 74%; in [4], below 25%; in experiment [6], 25 to 74%; in the experiment with Erysiphe graminis—ERYSGT it was below 25%. Also, the inhibition at 25 ppm (in experiment [2]; in the experiment on Ustilago maydis (USTIMA); in experiment [3]; in experiment [5]; in experiment [7]; in experiment [8]) was below 80% each time.
`COc1ccnc(C(=O)NC(C)c2ccc(C(F)(F)F)cc2)c1O` (stereo not shown) [Compound 247]: the pest or weed control at 100 ppm was below 25% in experiment [1]; 25 to 74% in the experiment with Septoria tritici—SEPTTR; below 25% in experiment [4]; 25 to 74% in [6]; below 25% in the experiment on Erysiphe graminis—ERYSGT. Moreover, the inhibition at 25 ppm in [2] was below 80%; in the experiment on Ustilago maydis (USTIMA), below 80%; in experiment [3], below 80%; in [5] it was above 80%; in [7] it was above 80%; in experiment [8], below 80%.
As for `COc1ccnc(C(=O)NC2CCCC2O)c1O` (stereo not shown) [Compound 248], the pest or weed control at 100 ppm in experiment [1] was below 25%; in the experiment with Septoria tritici—SEPTTR, below 25%; in experiment [4], below 25%; in experiment [6], 25 to 74%; in the experiment on Erysiphe graminis—ERYSGT it was below 25%. Besides, the inhibition at 25 ppm (in [2]; in the experiment on Ustilago maydis (USTIMA); in experiment [3]; in experiment [5]; in experiment [7]; in experiment [8]) was below 80% throughout.
For `COc1ccnc(C(=O)NC2CCCC2=O)c1O` (stereo not shown) [Compound 249], the pest or weed control at 100 ppm was below 25% in experiment [1]; 25 to 74% with Septoria tritici—SEPTTR; below 25% in experiment [4]; 25 to 74% in [6]; below 25% with Erysiphe graminis—ERYSGT. For the same compound, the inhibition at 25 ppm (in experiment [2]; with Ustilago maydis (USTIMA); in [3]; in experiment [5]; in experiment [7]; in experiment [8]) was below 80% in each case.
As for `CCC1(C)CC(NC(=O)c2nccc(OC)c2O)CC(C)(C)C1` (stereo not shown) [Compound 251], the “PUCCRT in vivo 1 Day Protectant” value in experiment [1] is recorded as “+ +”. Moreover, the inhibition at 25 ppm in experiment [2] was above 80%; with Ustilago maydis (USTIMA), below 80%; in [3], below 80%; in experiment [5] it was above 80%; in [7] it was above 80%; in [8] it was below 80%. Further, the “SEPTTR in vivo 1 Day Protectant” value with Septoria tritici—SEPTTR is “+ +”. Further, the pest or weed control at 100 ppm is 25 to 74% in experiment [4] and below 25% in the experiment with Erysiphe graminis—ERYSGT. For the same compound, the “LEPTNO in vivo 1 Day Protectant” value in experiment [6] is recorded as “+ +”.
In the case of `COc1ccnc(C(=O)NC2CC(C)(C)CC(C)(C3CC3)C2)c1O` (stereo not shown) [Compound 252], the pest or weed control at 100 ppm in experiment [1] was 25 to 74%; in the experiment on Septoria tritici—SEPTTR it was 25 to 74%; in experiment [4], 25 to 74%; in [6] it was 25 to 74%; with Erysiphe graminis—ERYSGT, below 25%. The inhibition at 25 ppm in experiment [2] is above 80%; in the experiment with Ustilago maydis (USTIMA), below 80%; in experiment [3] it was above 80%; in [5] it was above 80%; in experiment [7], above 80%; in [8] it was above 80%.

These data come from patent US6706740B2, “Fungicidal heterocyclic aromatic amides and their compositions, methods of use and preparation” (Dow AgroSciences LLC, priority 1999, dated 2004).
